In US20240041042A1, “1-(PYRIDYL)-5-AZINYLPYRAZOLE DERIVATIVES, AND THEIR USE FOR CONTROL OF UNDESIRED PLANT GROWTH” (Bayer Aktiengesellschaft, priority 2020, published 2024):

How the values were obtained:
Assay type in all cases: in vivo
[1] = tested on: Alopecurus myosuroides (ALOMY); assay: Pre-emergence herbicidal action against ALOMY; conditions: scored visually after about 3 weeks, 100% = plants have died
Outline: (§1)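 Pre-emergence soil-surface spray, WP/EC formulation, 0.5% additive, 600 l/ha water, rates of 320 g/ha or lower. Greenhouse, ~3 wk. Visual score, % of untreated control (100% = plants dead, 0% = like control).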

[2] = tested on: Amaranthus retroflexus (AMARE); assay: Pre-emergence herbicidal action against AMARE; conditions: visual scoring after about 3 weeks vs untreated controls
Outline: as §1

[3] = tested on: Echinochloa crus-galli (ECHCG); assay: Pre-emergence herbicidal action against ECHCG
Outline: as §1

[4] = tested on: Matricaria inodora (MATIN); assay: Pre-emergence herbicidal action against MATIN
Outline: as §1

[5] = tested on: Polygonum convolvulus (POLCO); assay: Pre-emergence herbicidal action against POLCO
Outline: as §1

[6] = tested on: Abutilon theophrasti (ABUTH); assay: Post-emergence herbicidal action against ABUTH; conditions: visual rating about 3 weeks after treatment vs untreated controls (100% = plants have died, 0% = like control plants)
Outline: (§2)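 Doses of 320 g/ha or lower, suffixes a, b and c marking different dosages, were applied post-emergence at the one-leaf stage in 600 l/ha water with 0.5% additive. Damage was assessed visually after about 3 weeks in the greenhouse.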

[7] = tested on: Alopecurus myosuroides (ALOMY); assay: Post-emergence herbicidal action against ALOMY; conditions: visual rating about 3 weeks after treatment vs untreated controls (100% = plants have died, 0% = like control plants)
Outline: as §2

[8] = tested on: Echinochloa crus-galli (ECHCG); assay: Post-emergence herbicidal action against ECHCG
Outline: as §2

Lolium rigidum (LOLRI) = assay: Post-emergence herbicidal action against LOLRI
Outline: as §2

[9] = tested on: Polygonum convolvulus (POLCO); assay: Post-emergence herbicidal action against POLCO
Outline: as §2

| SMILES | Pre-emergence action against ALOMY ([1]; 320 g/ha) [%] | Pre-emergence action against AMARE in % ([2]; 80 g/ha) [%] | Pre-emergence action against AMARE in % ([2]; 320 g/ha) [%] | Pre-emergence action against ECHCG in % ([3]; dosage 80 g/ha) [%] | Pre-emergence action against ECHCG in % ([3]; dosage 320 g/ha) [%] | Pre-emergence action against MATIN in % ([4]; dosage 80 g/ha) [%] | Pre-emergence action against MATIN in % ([4]; dosage 320 g/ha) [%] | Pre-emergence action against POLCO in % ([5]; dosage 80 g/ha) [%] | Pre-emergence action against POLCO in % ([5]; dosage 320 g/ha) [%] | Post-emergence action against ABUTH in % ([6]; 80 g/ha) [%] | Post-emergence action against ABUTH in % ([6]; 320 g/ha) [%] | Post-emergence action against ALOMY in % ([7]; 80 g/ha) [%] | Post-emergence action against ALOMY in % ([7]; 320 g/ha) [%] | Post-emergence action against ECHCG in % ([8]; dosage 80 g/ha) [%] | Post-emergence action against ECHCG in % ([8]; dosage 320 g/ha) [%] | Post-emergence action against LOLRI in % (Lolium rigidum (LOLRI); dosage 80 g/ha) [%] | Post-emergence action against LOLRI in % (Lolium rigidum (LOLRI); dosage 320 g/ha) [%] | Post-emergence action against POLCO in % ([9]; dosage 80 g/ha) [%] | Post-emergence action against POLCO in % ([9]; dosage 320 g/ha) [%] | Pre-emergence action against ALOMY ([1]; 80 g/ha) [%] |
| --- | --- | --- | --- | --- | --- | --- | --- | --- | --- | --- | --- | --- | --- | --- | --- | --- | --- | --- | --- | --- |
| COC(=O)[C@@H](C)Oc1nn(-c2ncccc2F)c(-c2ccc(F)nc2)c1I [Example I-341] | 100 | 100 | 100 | 80 | 100 | 90 | 100 | 90 | 100 | 80 | 90 | 80 | 100 | 100 | 100 | 90 | 90 | 80 | 80 | – |
| CCOC(=O)COc1nn(-c2ncccc2F)c(-c2cncc(F)c2)c1C1CC1 [Example I-174] | 100 | 100 | 100 | 100 | 100 | 90 | 90 | 90 | 100 | 80 | 80 | 90 | 90 | 80 | 80 | 80 | 80 | – | 80 | 90 |
| COC(=O)COc1nn(-c2ncccc2F)c(-c2ccc(F)nc2)c1Br [Example I-07] | 100 | 90 | 90 | – | 100 | 80 | 100 | 90 | 100 | 80 | 90 | 90 | 100 | – | 90 | – | 90 | 80 | 80 | 90 |
| C[C@@H](Oc1nn(-c2ncccc2F)c(-c2ccc(F)nc2)c1I)C(=O)O [Example I-343] | 90 | 100 | 100 | – | 100 | – | 100 | 90 | 100 | 80 | 90 | 90 | 100 | 90 | 90 | – | 90 | 80 | 80 | 90 |
| O=C(O)COc1nn(-c2ncccc2F)c(-c2ccc(F)nc2)c1Br [Example I-08] | 100 | 100 | 100 | 80 | 100 | – | 100 | 80 | 100 | 80 | 90 | 100 | 100 | 80 | 90 | – | 90 | 90 | 90 | 100 |
| CCOC(=O)[C@@H](C)Oc1nn(-c2ccccn2)c(-c2cncc(F)c2)c1Cl [Example I-184] | 100 | 100 | 100 | 90 | 100 | 90 | 90 | 90 | 90 | 80 | 90 | 80 | 90 | 90 | 90 | 90 | 90 | 80 | 80 | 90 |
| C[C@@H](Oc1nn(-c2ccccn2)c(-c2cncc(F)c2)c1Cl)C(=O)O [Example I-218] | 90 | 100 | 100 | 90 | 100 | 90 | 100 | 90 | 90 | 80 | 80 | – | 90 | 80 | 90 | 80 | 90 | – | 80 | 90 |
| COC(=O)[C@H](C)COC(=O)COc1nn(-c2ccccn2)c(-c2cncc(F)c2)c1Cl [Example I-192] | 90 | 80 | 100 | 90 | 100 | 90 | 90 | 90 | 100 | – | 80 | 90 | 90 | 90 | 90 | – | 80 | – | 80 | 90 |
| COC(=O)[C@@H](C)Oc1nn(-c2ncccc2F)c(-c2ccc(F)nc2)c1Br [Example I-05, Methyl (2R)-2-{[4-bromo-1-(3-fluoropyridin-2-yl)-5-(6-fluoropyridin-3-yl)-1H-pyrazol-3-yl]oxy}propanoate] | 100 | 90 | 100 | – | 100 | – | 90 | 90 | 90 | 80 | 80 | 90 | 100 | – | 90 | – | 90 | 90 | 90 | 90 |
